Data published in US7994161B2, “Derivatives of 2-alkoxy-3,4,5-trihydroxy-alkyl amides, preparation and use thereof, and compositions containing the same” (Sanofi-Aventis, priority 2006, dated 2011).
pIC50: −log10 of the molar value.

Tests used:
[1] = test system: HCT116 cells; assay: Antiproliferative activity: inhibition of cellular proliferation of HCT116 cells (14C-thymidine incorporation); format: cell-based; conditions: Homo sapiens, HCT-116, 96 hours
Procedure: The antiproliferative activity of the products of the examples of Table 1 was determined by measuring the inhibition of the cellular proliferation of HCT116 cells.
The cells are inoculated into a cell culture medium at a concentration of 10 000 cells per well, in 0.17 mL of medium, and 20 μL of product to be tested, at various concentrations, and 10 μL of thymidine [methyl-14C] (100 μCi/ml—specific activity 47.90 mCi/mmol; NEN Technologies reference NEC568 batch 3550-001) are added, and then the cells are incubated at 37° C. and 5% CO2.
Medium used for the culture of HCT116 cells:DMEM medium 2 mM L-glutamine, 200 IU/ml penicillin, 200 μg/ml streptomycin and 10% (V/V) foetal calf serum (Life Technologies).
After 96 hours, the incorporation of ^14C-thymidine is counted in a Microbeta Wallac Trilux 1450 liquid scintillation counter. The results R are expressed in cpm (counts per minute) and converted to percentage growth inhibition GI % by first subtracting the mean of the number of cpm of the wells without B cells and by then dividing by the number of cpm of the wells of the untreated cells C comprising 20 μL of medium for dilution of the product containing 1% ethanol. (GI %=(R−B)×100/C %).
The IC50 values are calculated with the aid of the equation 205 of the XLFit software (IDBS company, UK) by non-linear regression analysis using the Marquardt algorithm (Donald W. MARQUARDT, J. Soc. industry. appl, vol 11, No. 2, June, 1963).

[2] = in vitro; conditions: human, Caco-2

Row | pIC50 [1] | Papp [2] [×10⁻⁶ cm/s] | Compound
1 | 7.55 |  | CO[C@@H](C(=O)NC1CN(C)c2ccccc2NC1=O)[C@H](O)[C@@H](O)[C@H](O)/C=C/C(C)(C)C (stereo partly drawn) [Example 5, N-((S)-1-methyl-4-oxo-2,3,4,5-tetrahydro-1H-1,5-bezodiazepin-3-yl)-(E)-(2R,3R,4S,5R)-3,4,5-trihydroxy-2-methoxy-8,8-dimethylnon-6-enamide]
2 | 7.06 |  | CO[C@@H](C(=O)N[C@H]1CNc2ccccc2NC1=O)[C@H](O)[C@@H](O)[C@H](O)/C=C/C(C)(C)C [Example 3, N-((S)-2-oxo-2,3,4,5-tetrahydro-1H-1,5-benzodiazepin-3-yl)-(E)-(2R,3R,4S,5R)-3,4,5-trihydroxy-2-methoxy-8,8-dimethylnon-6-enamide]
3 | 7.35 |  | CO[C@@H](C(=O)N[C@H]1CNc2ccccc2N(C)C1=O)[C@H](O)[C@@H](O)[C@H](O)/C=C/C(C)(C)C [Example 4, N-((S)-1-methyl-2-oxo-2,3,4,5-tetrahydro-1H-1,5-benzodiazepin-3-yl)-(E)-(2R,3R,4S,5R)-3,4,5-trihydroxy-2-methoxy-8,8-dimethylnon-6-enamide]
4 | 7.49 | 5.2 | CO[C@@H](C(=O)N[C@H]1COc2ccccc2N(C)C1=O)[C@H](O)[C@@H](O)[C@H](O)/C=C/C(C)(C)C [Example 2, N-((S)-9-methyl-8-oxo-6,7,8,9-tetrahydro-5-oxa-9-azabenzocyclohepten-7-yl)-(E)-(2R,3R,4S,5R)-3,4,5-trihydroxy-2-methoxy-8,8-dimethylnon-6-enamide]
5 | 7.22 |  | CO[C@@H](C(=O)N[C@H]1COc2ccccc2NC1=O)[C@H](O)[C@@H](O)[C@H](O)/C=C/C(C)(C)C [Example 1, N-((S)-8-oxo-6,7,8,9-tetrahydro-5-oxa-9-azabenzocyclohepten-7-yl)-(E)-(2R,3R,4S,5R)-3,4,5-trihydroxy-2-methoxy-8,8-dimethylnon-6-enamide]
